Data on 13 compounds can be found in US5451600A, “Substituted tetrahydrobenzopyrrolylfuranoic acid derivatives as phospholipase A2 inhibitors” (Hoffmann-La Roche Inc., priority 1994, dated 1995).

The target of assay [1] is T1, PLA2 activity in human synovial fluid (HSF) (Homo sapiens, UniProt P14555).
T1 construct: Synovial fluid was obtained from patients with rheumatoid arthritis; from tissue; host or cells: cell-depleted synovial fluid of patients with rheumatoid arthritis
T1 sequence (P14555 21-144): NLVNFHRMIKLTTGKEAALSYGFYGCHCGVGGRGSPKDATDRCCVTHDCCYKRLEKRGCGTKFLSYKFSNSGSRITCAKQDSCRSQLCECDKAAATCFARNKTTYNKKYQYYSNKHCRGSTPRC
Description: Phospholipase A2 (PLA2) enzymatic assay - % Inhibition of HSF-PLA2. Type of assay: biochemical. To be noted: for inhibition at 5 µM: read-out: % Inhib. of HSF-PLA2 at 5 μM. The text has this: 1, Phospholipase A2 (PLA2) enzymatic assay - % Inhibition of HSF-PLA2
PLA2 assay procedure described by Hope et al., Inflammation 14:543-559 (1.990) was utilized to measure the inhibitory activity of the invention (inhibitor) against PLA2 activity in human synovial fluid (HSF). Synovial fluid was obtained from patients with rheumatoid arthritis. The assay procedure measured the release of [1-^14 C]oleic acid from the sn-2 position of phospholipids in autoclaved Escherichia coli previously grown in media containing [1-^14 C]oleic acid. The standard assay reaction conditions included 1×10^9 Escherichia coil (10,000 dpm ^14 C), 0.15% (v/v) cell-depleted HSF, (which was equivalent to 66 μg protein/mL) 2 mM CaCl2, 150 mM NaCl, 50 mM sodium (N-[2-hydroxyethyl] piperazine-N'-[2-ethanesulfonate]) (HEPES) buffer (pH 7.3), 1% dimethyl sulfoxide (DMSO) and various concentrations of inhibitor in a total volume of 0.5 ml. Inhibitors were dissolved in DMSO and added. The reaction was initiated by addition of HSF, incubated for 30 min at 37° C. and then stopped by addition of 2.5 ml of chloroform/methanol (1:1.5, v/v). The total lipids were extracted by the method of Bligh, E. G., and Dyer, W. J, Can. J. Biochem. Physiol. 37:911-917 (1959) by the further addition of 0.5 mL of chloroform and 1 mL of water with mixing. The lipid extract was redissolved in chloroform/methanol (9:1, v/v) containing 10 ug of carrier oleic acid. The oleic acid was separated from phospholipids by thin layer chromatography using gel-impregnated glass fiber sheets (ITLC type SG sheets). The sheets were preactivated by heating at 110° C. for 30 min. The lipid extract was applied to the sheets and chromatographed for 6 minutes, using hexane/acetic acid (100:1, v/v). The positions on the sheet containing oleic acid and phospholipids were visualized by exposure to iodine vapor and located by comparison to standards. The oleic acid and phospholipid zones were cut from the sheets, shaken individually with 2 ml of ethanol/water (80:20, v/v) and 15 ml of Aquasol, then counted for [^14 C] radioactivity (dpm). PLA2 activity, expressed as percent hydrolysis, was calculated from the formula: [formula] and was corrected for nonenzymatic hydrolysis of the substrate. Percent inhibition due to the presence of drug was calculated from the formula: [formula]
When various concentrations of a Compound of Formula I were tested, the percent inhibition at each concentration was plotted as log concentration (abscissa) versus percent inhibition (ordinate) and the IC50 was determined from this plot.

For assay [2], the system named is cellular PLA2. Description: Inhibition of Cellular Phospholipase A2 (A23187-stimulated macrophages). The assay is classed as cell-based. To be noted: 5 μM; rat peritoneal macrophages, A-23187 stimulated. The procedure:
II. Inhibition of Cellular Phospholipase A2. - % Inhibition of Cellular PLA2
Resident macrophages were obtained from rats by peritoneal lavage with phosphate buffered saline minus Ca2^++ and Mg2^++ (PBS). Cells were washed 3 times with PBS and resuspended in Dulbecco's Modified Eagle's Medium (GiBco) containing L-glutamine low D-glucose (1000 mg/L), and sodium pyruvate (110 mg/L), supplemented with 10% fetal calf serum. Cells were counted on a Coulter ZBI cell counter and then resuspended to a concentration of 6×10^6 cells/1.5 ml. The cell suspension (1.5 ml culture dishes (35 mm) and the cells were allowed to adhere to the dishes for 90 minutes at 37° C. Dishes were washed 3 times with PBS to remove non-adherent cells. [^14 C]arachidonic acid ([^14 C]-AA, approximately […], were added to the cells (1 uCi/dish) and allowed to incorporate for 120 minutes. Medium containing unincorporated [^14 C]-AA was removed and the cell layer was again washed 3 times with PBS. Inhibitors were dissolved in dimethylsulfoxide (DMSO) and added directly to the macrophages in Hank's Balanced Salt Solution (GiBco) phosphate-buffered, pH 7.4) to obtain the desired final concentration. Cells were incubated with drug or DMSO for 30 minutes at 37° C. and were then stimulated with calcium-ionophore A-23187 (0.75 uM) for 20 minutes. The extracellular medium was removed and the [^14 C] radioactivity released into this medium from AA metabolism was measured by liquid scintillation spectroscopy. The amounts of LTB4 and PGE2 were measured in the extracellular medium by radio immunoassay with specific antisera. The effects of inhibitor were measured as percent inhibition of A23187- stimulated AA metabolite release (^14 C release, PGE2 and LTB4 production) (control) which were calculated from the formula: [formula] IC50 's were calculated as described in the HSF-PLA2 assay.

Assay [3] has as its system carrageenan-induced paw edema in rats. As to the kind of experiment: Carrageenan-induced paw edema model of inflammation. The assay is classed as in vivo. As to conditions: rat; for inhibition in vivo at 10 mg/kg: 10 mg/Kg ip; for inhibition in vivo at 10 mg/kg / inhibition in vivo at 100 mg/kg / inhibition in vivo at 20 mg/kg / inhibition in vivo at 30 mg/kg: 2 hr, read-out: Carrageenan ind. paw edema % Inhib. 2 hr; for inhibition in vivo at 100 mg/kg: 100 mg/Kg po.

Read-outs that look alike come from different tables or passages of the source.

In the case of `CCCCCCCCn1c2c(c3cc(/C=C(\C)c4ccc(C(=O)O)o4)ccc31)CCCC2(C)C` [Example 53, (E)-5-[1-methyl-2-(1,2,3,4-tetrahydro-1,1-dimethyl-9-octyl-9H-dibenzo[b,d]pyrrol-6-yl)ethenyl]-2-furancarboxylic acid], in assay [1], the inhibition at 5 µM was 73%. The “% Inhib. of cellular PLA2 at 5 μM” value in assay [2] stood at 63%. Also, in assay [3], the inhibition in vivo at 10 mg/kg amounted to 68% and the inhibition in vivo at 100 mg/kg was 55%.
Taken in the same sequence, the figures for `CCCCCCCCn1c2c(c3cc(CCc4ccc(C(=O)O)o4)ccc31)CCCC2` [Example 55, 5-[2-(1,2,3,4-tetrahydro-9-octyl-9H-dibenzo[b,d]pyrrol-6-yl)ethyl]-2-furancarboxylic acid] were 73%, 91%, 59% and 49%.
Turning to `CCCCCCCCn1c2c(c3ccc(Oc4ccc(C(=O)O)o4)cc31)CCCC2` [Example 133, 5-[(1,2,3,4-tetrahydro-9-octyl-9H-dibenzo[b,d]pyrrol-7-yl)oxy]-2-furancarboxylic acid], the inhibition at 5 µM in assay [1] is 31%. In addition, the “% Inhib. of cellular PLA2 at 5 μM” value in assay [2] was 85%. The inhibition in vivo at 100 mg/kg in assay [3] stood at 58%.
Turning to `CCCCCCCCn1c2c(c3cc(Oc4ccc(C(=O)O)o4)ccc31)CCCC2(C)C` [Example 134, 5-[(1,2,3,4-tetrahydro-1,1-dimethyl-9-octyl-9H-dibenzo[b,d]pyrrol-6-yl)oxy]-2-furancarboxylic acid], the inhibition at 5 µM in assay [1] came out at 86%. Further, the “% Inhib. of cellular PLA2 at 5 μM” value in assay [2] is reported as 94%. The inhibition in vivo at 20 mg/kg in assay [3] (20 mg/Kg ip) worked out at 36%. Also, the inhibition in vivo at 100 mg/kg in assay [3] stood at 48%.
Turning to `O=C(O)c1ccc(Oc2ccc3c(c2)c2c(n3Cc3ccc(Cl)cc3)CCCC2)o1` [Example 139, 5-[[1,2,3,4-tetrahydro-9-(4-chlorophenyl)methyl-9H-dibenzo[b,d]pyrrol-6-yl]oxy]-2-furancarboxylic acid], in assay [1], the inhibition at 5 µM was 31%. In assay [2], the “% Inhib. of cellular PLA2 at 5 μM” value was found to be 100%. For the same compound, the inhibition in vivo at 30 mg/kg in assay [3] (30 mg/Kg ip) was 68%.
`CCCCCCCCCn1c2c(c3cc(Oc4ccc(C(=O)O)o4)ccc31)CCCC2` [Example 142, 5-[(1,2,3,4-tetrahydro-9-nonyl-9H-dibenzo[b,d]pyrrol-6-yl)oxy]-2-furancarboxylic acid]: in assay [1], the inhibition at 5 µM was 83%. Also, the “% Inhib. of cellular PLA2 at 5 μM” value in assay [2] stood at 90%. Also, the inhibition in vivo at 30 mg/kg in assay [3] (30 mg/Kg po) was 48%.
The compound `O=C(O)c1ccc(Oc2ccc3c(c2)c2c(n3CCCCc3ccccc3)CCCC2)o1` [Example 145, 5-[[1,2,3,4-tetrahydro-9-(4-phenylbutyl)-9H-dibenzo[b,d]pyrrol-6-yl]oxy]-2-furancarboxylic acid] yielded a half-inhibitory concentration (IC50) in assay [1] (human synovial fluid PLA2, 30 min at 37° C., pH 7.3) of 4.8 µM. For the same compound, the inhibition at 5 µM in assay [1] was 47%. Also, in assay [2], the “% Inhib. of cellular PLA2 at 5 μM” value worked out at 99%. The inhibition in vivo at 30 mg/kg in assay [3] (30 mg/Kg ip) is 43%.
With `O=C(O)c1ccc(Oc2ccc3c(c2)c2c(n3Cc3ccc(F)cc3)CCCC2)o1` [Example 146, 5-[[9-[(4-fluorophenyl)methyl]-1,2,3,4-tetrahydro-9H-dibenzo[b,d]pyrrol-6-yl]oxy]-2-furancarboxylic acid], the inhibition at 5 µM in assay [1] came to 37%. Further, the “% Inhib. of cellular PLA2 at 5 μM” value in assay [2] came to 98%. Moreover, the inhibition in vivo at 30 mg/kg in assay [3] (30 mg/Kg ip) is 51%. In addition, in assay [3], the inhibition in vivo at 100 mg/kg was 33%.
Consider `O=C(O)c1ccc(Oc2ccc3c(c2)c2c(n3Cc3cccc(F)c3)CCCC2)o1` [Example 147, 5-[[9-[(3-fluorophenyl)methyl]-1,2,3,4-tetrahydro-9H-dibenzo[b,d]pyrrol-6-yl]oxy]-2-furancarboxylic acid], for which the inhibition at 5 µM in assay [1] was 37%. Besides, the “% Inhib. of cellular PLA2 at 5 μM” value in assay [2] amounted to 94%. In assay [3] (30 mg/Kg ip), the inhibition in vivo at 30 mg/kg worked out at 49%.
On to `COc1ccc(Cn2c3c(c4cc(Oc5ccc(C(=O)O)o5)ccc42)CCCC3)cc1` [Example 149, 5-[[1,2,3,4-tetrahydro-9-[(4-methoxyphenyl)methyl]-9H-dibenzo[b,d]pyrrol-6-yl]oxy]-2-furancarboxylic acid], for which the inhibition at 5 µM in assay [1] worked out at 62%. In addition, the “% Inhib. of cellular PLA2 at 5 μM” value in assay [2] is listed as 99%. For the same compound, in assay [3] (30 mg/Kg ip), the inhibition in vivo at 30 mg/kg worked out at 48%.
Taken in the same sequence, the figures for `COc1ccc(Cn2c3c(c4cc(Oc5ccc(C(=O)O)o5)ccc42)CCCC3)cc1OC` [Example 150, 5-[[1,2,3,4-tetrahydro-9-[(3,4-dimethoxyphenyl)methyl]-9H-dibenzo[b,d]pyrrol-6-yl]oxy]-2-furancarboxylic acid] were 42%, 96% and 45%.
As to `CCCCCCCCn1c2c(c3cc(C(=O)c4ccc(C(=O)O)o4)ccc31)CCCC2` [Example 157, 5-[(1,2,3,4-tetrahydro-9-octyl-9H-dibenzo[b,d]pyrrol-6-yl)carbonyl]-2-furancarboxylic acid], the inhibition at 5 µM in assay [1] was 40%. In addition, the “% Inhib. of cellular PLA2 at 5 μM” value in assay [2] was 68%. Besides, the inhibition in vivo at 20 mg/kg in assay [3] (20 mg/Kg ip) is 41%. The inhibition in vivo at 100 mg/kg in assay [3] worked out at 44%.
“(E)-5-[2-(1,2,3,4-tetrahydro-3,3dimethyl-9-octyl-9 H-dibenzo[b,d]-pyrrol-6yl)ethenyl]-2-furancarboxylic acid [Example 45]”: the “% Inhib. of HSF-PLA2 at 5 μM” value in assay [1] (5 μM) came to 86%. In addition, the “% Inhib. of cellular PLA2 at 5 μM” value in assay [2] is recorded as 53%. In addition, the “Carrageenan ind. paw edema % Inhib. 2 hr” value in assay [3] (20 mg/Kg ip) stood at 46%.
